“And” between values parts separate entries of the source, which are not always exact repeats. Equal values may be shown once.

The source of these data is patent US9518130B2, “Use of ERBB3 inhibitors in the treatment of triple negative and basal-like breast cancers” (Merrimack Pharmaceuticals, Inc., priority 2010, dated 2016).

Test [1] relates to MDA-MB-231 triple negative breast cancer xenograft model. Description: Inhibition of tumor growth in vivo by combination treatment with MM-121 and paclitaxel (Example 4). Details: species or system Balb/c nude mice. Conditions: for mean tumor volumes: MM121 150 μg/mouse Q3D ip, paclitaxel 5 mg/kg; for effect on tumor growth (in words): sub-optimal doses, FIG. 3. An excerpt:
Treatment is continued for 4 weeks. […] Results:

Test [2] has the same test system. Description: MM-121 combination with targeted and chemotherapies in vivo (Example 5). Conditions: MM121 300 ug/mouse Q3D, erlotinib 50 mg/kg PO, cetuximab 2 mg/kg Q3D, paclitaxel 10 mg/kg.
Protocol: Balb/c nude mice (female, 4-5 weeks old from Charles River lab) are implanted orthotopically with 10×10^6 cells in mammary pad. Tumors are allowed to reach average of 150 mm^3 in size before randomization into 9 groups of 8 mice, containing mice with a similar size distribution of tumors. […] Treatment is continued for 4 weeks. Tumors are measured twice weekly and tumor volume is calculated as p/6×length×width, where the width is the shorter measurement.
Test [3] relates to MDA-MB-231 human triple negative breast cancer cells. Description: MM-121 effects on MDA-MB-231 xenograft (subcutaneous flank or mammary fat pad). Conditions: MM-121 600 ug per mouse IP every 3 days; FIG. 2. Format: in vivo, Balb/c nude mice. As for the experimental part: Balb/c nude mice are injected under general anesthesia with 10^7 MDA-MB-231 human triple negative breast cancer cells (ATCC) either subcutaneously in the flank or into the mammary fat pad. Mice with established tumors (i.e., after 7-10 days of tumor growth following injection of cells) are then treated IP with either PBS or MM-121 every 3 days with 600 ug MM-121 per mouse as described in Example 1. Tumor volume is measured twice a week as described in Example 1.

For test [4], the system named is triple negative human mammary carcinoma xenograft MAXF449. Description: Anti-tumor efficacy of MM-121 monotherapy in MAXF449 xenograft. As to conditions: MM-121 600 μg per mouse IP every three days. Type of test: in vivo, NMRI nude mice. As for the experimental part: An analysis of the anti-tumor efficacy and tolerability of MM-121 treatment of tumor-bearing mice is carried out using triple negative human mammary carcinoma xenograft MAXF449 (ONCOTEST GmbH, Frieburg, Germany) in NMRI nude mice. MAXF449 is a Human tumor explant (histologically described upon explant as solid invasive ductal, and poorly defined) established via subcutaneous injection in serial passages in nude mice. The MAXF449 cells used in these experiments have been passaged 22 times. NMRI nude mice are obtained from Taconic farms, Charles River Laboratories International, or Harlan Laboratories. […]
To investigate anti-tumor efficacy in monotherapy, MM-121 or vehicle control (100 μL) is given to tumor-bearing mice at 600 μg per mouse (MM-121 as a 6 mg/mL solution in PBS) by IP injection every three days. […] Efficacy is determined by comparing tumor growth between the antibody-treated mice and the vehicle control mice and is expressed as the experimental to control ratio of median relative tumor volumes (T/C value). […]
Mice are randomized and therapy begins when a sufficient number of individual tumors have grown to a volume of approximately 200 mm3. Tumors are measured (L×W) by digital caliper measurement and the tumor volume is calculated using the formula Pi/6 (W2×L). […]

[5] abbreviates: 1st time point column (day head not given; FIG. 3 starts at 28 days following injection).
Setting [6] is: 2nd time point column (day head not given).
Setting [7] is: 3rd time point column (day head not given).
The mark [8] stands for this setting: 4th time point column (day head not given).
[9] abbreviates: 5th time point column (day head not given).
Setting [10] is: 6th time point column (day head not given).

For the molecule `CC(=O)O[C@H]1C(=O)[C@@]2(C)[C@H]([C@H](OC(=O)c3ccccc3)[C@]3(O)C[C@H](OC(=O)[C@H](O)[C@@H](NC(=O)c4ccccc4)c4ccccc4)C(C)=C1C3(C)C)[C@]1(OC(C)=O)CO[C@@H]1C[C@@H]2O` [paclitaxel], the mean tumor volumes in test [1] (setting [5]) is on record as 97.9 mm^3; in test [1] (setting [6]), 113.5 mm^3; in test [1] (setting [7]) it was 144.6 mm^3; in test [1] (setting [8]), 166.2 mm^3; in test [1] (setting [9]), 178.8 mm^3; in test [1] (setting [10]) it was 202.2 mm^3. The mean tumor volumes stood at 155.2 mm^3 in test [2] (Day 28); 167.0 mm^3 in test [2] (Day 32); 182.4 mm^3 in test [2] (Day 36); 216.6 mm^3 in test [2] (Day 39); 228.1 mm^3 in test [2] (Day 43); 247.0 mm^3 in test [2] (Day 46). The mean tumor volumes in test [2] (Day 49) was 292.6 mm^3; in test [2] (Day 53), 383.5 mm^3. The “effect on tumor growth (in words)” value in test [1] is “inhibited tumor growth”.
On to `C#Cc1cccc(Nc2ncnc3cc(OCCOC)c(OCCOC)cc23)c1` [erlotinib], for which the mean tumor volumes in test [2] (Day 28) stood at 172.1 mm^3; in test [2] (Day 32) it was 182.1 mm^3; in test [2] (Day 36), 216.1 mm^3; in test [2] (Day 39), 273.2 mm^3; in test [2] (Day 43), 252.8 mm^3; in test [2] (Day 46) it was 245.6 mm^3. Further, the mean tumor volumes was determined as 303.1 mm^3 in test [2] (Day 49) and 327.4 mm^3 in test [2] (Day 53).

B1: MM-121: anti-ErbB3 monoclonal antibody comprising VH and VL sequences as shown in SEQ ID NOs: 1 and 2 (antibody, listed as Homo sapiens, V domains shown)
VH: EVQLLESGGGLVQPGGSLRLSCAASGFTFSHYVMAWVRQAPGKGLEWVSSISSSGGWTLYADSVKGRFTISRDNSKNTLYLQMNSLRAEDTAVYYCTRGLKMATIFDYWGQGTLVTVSS
VL: QSALTQPASVSGSPGQSITISCTGTSSDVGSYNVVSWYQQHPGKAPKLIIYEVSQRPSGVSNRFSGSKSGNTASLTISGLQTEDEADYYCCSYAGSSIFVIFGGGTKVTVL
As for B1, the mean tumor volumes in test [1] (setting [5]) was 99.4 mm^3; in test [1] (setting [6]), 115.5 mm^3; in test [1] (setting [7]), 137.5 mm^3; in test [1] (setting [8]), 180.4 mm^3; in test [1] (setting [9]) it was 187.2 mm^3; in test [1] (setting [10]) it was 242.7 mm^3. The mean tumor volumes in test [2] (Day 28) is on record as 178.6 mm^3; in test [2] (Day 32) it was 197.3 mm^3; in test [2] (Day 36) it was 219.1 mm^3; in test [2] (Day 39) it was 257.8 mm^3; in test [2] (Day 43), 269.4 mm^3; in test [2] (Day 46), 291.4 mm^3. Besides, the results for the mean tumor volumes in test [2] (Day 49) and in test [2] (Day 53) were 351.3 mm^3 and 425.0 mm^3, respectively. The “effect on tumor growth (in words)” value was “inhibited tumor growth” in test [1]; “stopped human triple negative breast cancer tumor growth essentially completely” in test [3]; “inhibited or stopped tumor growth, and in some cases reduced tumor size” in test [4] (FIG. 1). In addition, the “TGI (tumor growth inhibition)” value in test [4] (MAXF449 xenograft, NMRI nude mice) was “approximately 200% and 200%”.
